# Reference: US8592629B2, “Sulfonamide derivatives as Nav 1.7 inhibitors” (Pfizer Limited, priority 2010, dated 2013)
# Biological target: T1, Nav1.7 (or SCN9A) channel (Homo sapiens, UniProt Q15858)
# T1 construct: expressed in transfected cells
# Experiment: Nav1.7 (hSCN9A) block in HEK cells, Ionworks Quattro automated electrophysiology
# Format: cell-based
# Settings: Ionworks Quattro assay (IW); HEK cells stably transfected with hSCN9A; read-out: Nav1.7 EIC50 (IW)
# Experimental: The ability of the compounds of formula (I) to block the Nav1.7 (or SCN9A) channel were measured using the assay described below.
# Human Embryonic Kidney (HEK) cells were transfected with an hSCN9A construct using lipofectamine reagent (Invitrogen), using standard techniques. Cells stably expressing the hSCN9A constructs were identified by their resistance to G-418 (400 μg/ml). Clones were screened for expression using the whole-cell voltage-clamp technique.
# HEK cells stably transfected with hSCN9A were maintained in DMEM medium supplemented with 10% heat-inactivated fetal bovine serum and 400 μg/ml G-418 in an incubator at 37° C. with a humidified atmosphere of 10% CO2. For HTS, cells were harvested from flasks by trypsinization and replated in an appropriate multi-well plate (typically 96 or 384 wells/plate) such that confluence would be achieved within 24 hours of plating. For electrophysiological studies, cells were removed from the culture flask by brief trypsinization and re-plated at low density onto glass cover slips. Cells were typically used for electrophysiological experiments within 24 to 72 hours after plating.
# Electrophysiological assays were also conducted using the lonworks Quattro automated electrophysiological platform (Molecular Devices Corp). Intracellular and extracellular solutions were as described above with the following changes, 120 μg/ml amphotericin was added to the intracellular solution to perforate the membrane and allow electrical access to the cells. hSCN9A cells were grown and harvested as for PatchXpress and cells were resuspended in extracellular solution at a concentration of 1×10^6 cells/ml. The onboard liquid handling facility of the Ionworks Quattro was used for dispensing cells and application of test compounds. A voltage protocol was then applied that comprised of a voltage step to fully inactivate the sodium channels, followed by a brief hyperpolarized recovery period to allow partial recovery from inactivation for unblocked sodium channels, followed by a test depolarized voltage step to assess magnitude of inhibition by test compound. Compound effect was determined based on current amplitude difference between the pre-compound addition and post-compound addition scans.
# Compounds of the Examples were tested in the assays described above and found to have the Nav1.7 EIC50 (μM) values specified in the table below. All data are derived from the PatchXpress assay unless explicitly stated otherwise.
# T1 sequence (Q15858 whole entry): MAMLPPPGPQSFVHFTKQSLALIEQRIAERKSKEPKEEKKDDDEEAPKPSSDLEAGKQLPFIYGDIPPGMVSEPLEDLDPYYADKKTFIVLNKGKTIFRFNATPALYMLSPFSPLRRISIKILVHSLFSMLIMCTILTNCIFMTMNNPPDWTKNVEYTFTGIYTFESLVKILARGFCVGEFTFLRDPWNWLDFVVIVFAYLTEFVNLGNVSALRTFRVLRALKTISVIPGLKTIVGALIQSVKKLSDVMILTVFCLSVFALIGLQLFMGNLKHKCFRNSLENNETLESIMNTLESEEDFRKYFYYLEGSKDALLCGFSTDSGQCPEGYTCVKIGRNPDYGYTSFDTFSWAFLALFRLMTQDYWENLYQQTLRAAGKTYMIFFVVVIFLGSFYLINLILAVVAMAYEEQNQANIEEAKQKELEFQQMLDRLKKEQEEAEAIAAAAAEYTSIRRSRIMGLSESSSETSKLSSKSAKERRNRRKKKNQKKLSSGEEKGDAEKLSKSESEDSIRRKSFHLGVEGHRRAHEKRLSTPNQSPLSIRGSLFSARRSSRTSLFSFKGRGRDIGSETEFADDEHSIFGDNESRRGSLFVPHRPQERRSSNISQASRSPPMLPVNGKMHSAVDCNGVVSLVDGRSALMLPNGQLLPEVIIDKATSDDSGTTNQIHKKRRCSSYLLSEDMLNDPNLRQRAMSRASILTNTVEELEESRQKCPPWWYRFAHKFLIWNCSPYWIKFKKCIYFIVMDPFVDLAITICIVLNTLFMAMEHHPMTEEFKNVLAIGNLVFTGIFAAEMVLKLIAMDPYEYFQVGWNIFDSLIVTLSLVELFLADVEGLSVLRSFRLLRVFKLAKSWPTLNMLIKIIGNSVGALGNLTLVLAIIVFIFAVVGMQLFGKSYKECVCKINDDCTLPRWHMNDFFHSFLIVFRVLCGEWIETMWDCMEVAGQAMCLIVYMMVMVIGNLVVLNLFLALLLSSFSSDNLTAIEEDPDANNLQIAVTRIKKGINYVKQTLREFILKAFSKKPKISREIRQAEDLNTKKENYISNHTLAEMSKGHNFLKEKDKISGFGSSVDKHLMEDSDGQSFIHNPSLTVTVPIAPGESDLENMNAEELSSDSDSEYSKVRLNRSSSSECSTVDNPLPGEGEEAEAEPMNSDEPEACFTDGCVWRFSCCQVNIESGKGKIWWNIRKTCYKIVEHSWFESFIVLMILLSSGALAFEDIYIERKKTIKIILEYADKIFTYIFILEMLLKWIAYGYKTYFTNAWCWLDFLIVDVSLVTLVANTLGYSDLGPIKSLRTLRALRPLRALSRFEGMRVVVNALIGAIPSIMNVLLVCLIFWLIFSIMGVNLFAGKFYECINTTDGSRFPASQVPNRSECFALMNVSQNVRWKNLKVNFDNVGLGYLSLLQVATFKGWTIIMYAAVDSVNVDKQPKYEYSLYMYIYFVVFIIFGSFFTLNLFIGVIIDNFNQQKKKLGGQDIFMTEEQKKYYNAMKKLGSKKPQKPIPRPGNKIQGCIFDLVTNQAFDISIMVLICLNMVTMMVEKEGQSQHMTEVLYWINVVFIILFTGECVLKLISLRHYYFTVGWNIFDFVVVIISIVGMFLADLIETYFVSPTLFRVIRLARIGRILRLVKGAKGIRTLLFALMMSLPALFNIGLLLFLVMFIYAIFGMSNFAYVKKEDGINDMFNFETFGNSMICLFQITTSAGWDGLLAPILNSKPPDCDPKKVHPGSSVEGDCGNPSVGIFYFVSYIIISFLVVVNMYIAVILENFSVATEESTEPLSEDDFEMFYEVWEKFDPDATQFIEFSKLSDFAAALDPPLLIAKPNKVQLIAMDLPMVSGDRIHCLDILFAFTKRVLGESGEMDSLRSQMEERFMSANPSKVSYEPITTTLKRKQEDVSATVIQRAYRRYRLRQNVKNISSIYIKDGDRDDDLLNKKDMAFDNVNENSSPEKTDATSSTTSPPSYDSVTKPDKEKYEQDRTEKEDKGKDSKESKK
row,IC50,SMILES
1,232 µM,"CCc1cn2nc(Oc3cc(F)c(C(=O)NS(C)(=O)=O)cc3F)ccc2n1 [Example 180, 4-[(2-ethylimidazo[1,2-b]pyridazin-6-yl)oxy]-2,5-difluoro-N-(methylsulfonyl)benzamide]"
2,> 323 µM,"Cc1cc(Oc2cc(F)c(C(=O)NS(C)(=O)=O)cc2F)nc(C)n1 [Example 183, 4-[(2,6-dimethylpyrimidin-4-yl)oxy]-2,5-difluoro-N-(methylsulfonyl)benzamide]"
3,> 323 µM,"Cc1cc(C#N)nc(Oc2cc(F)c(C(=O)NS(C)(=O)=O)cc2F)c1 [Example 185, 4-[(6-cyano-4-methylpyridin-2-yl)oxy]-2,5-difluoro-N-(methylsulfonyl)benzamide]"
4,> 323 µM,"Cc1cc(N(C)C)nc(Oc2cc(F)c(C(=O)NS(C)(=O)=O)cc2F)n1 [Example 186, 4-{[4-(dimethylamino)-6-methylpyrimidin-2-yl]oxy}-2,5-difluoro-N-(methylsulfonyl)benzamide]"
5,232 µM,"Cc1nccnc1Oc1cc(F)c(C(=O)NS(C)(=O)=O)cc1F [Example 189, 2,5-difluoro-4-[(3-methylpyrazin-2-yl)oxy]-N-(methylsulfonyl)benzamide]"
6,29.3 µM,"COc1ccc2nc(Oc3cc(F)c(C(=O)NS(C)(=O)=O)cc3F)ccc2c1 [Example 190, 2,5-difluoro-4-[(6-methoxyquinolin-2-yl)oxy]-N-(methylsulfonyl)benzamide]"
7,> 323 µM,"CS(=O)(=O)NC(=O)c1cc(F)c(Oc2nncc3ccccc23)cc1F [Example 195, 2,5-difluoro-N-(methylsulfonyl)-4-(phthalazin-1-yloxy)benzamide]"
8,> 323 µM,"CCCc1ncc(F)c(Oc2cc(F)c(C(=O)NS(C)(=O)=O)cc2F)n1 [Example 197, 2,5-difluoro-4-[(5-fluoro-2-propylpyrimidin-4-yl)oxy]-N-(methylsulfonyl)benzamide]"
9,> 323 µM,"CS(=O)(=O)NC(=O)c1cc(F)c(Oc2ncc(Cl)cn2)cc1F [Example 198, 4-[(5-chloropyrimidin-2-yl)oxy]-2,5-difluoro-N-(methylsulfonyl)benzamide]"
10,> 323 µM,"Cc1cc(Oc2cc(F)c(C(=O)NS(C)(=O)=O)cc2F)ncn1 [Example 199, 2,5-difluoro-4-[(6-methylpyrimidin-4-yl)oxy]-N-(methylsulfonyl)benzamide]"
11,173 µM,"COc1cc(Oc2cc(F)c(C(=O)NS(C)(=O)=O)cc2F)ncn1 [Example 200, 2,5-difluoro-4-[(6-methoxypyrimidin-4-yl)oxy]-N-(methylsulfonyl)benzamide]"
12,222 µM,"CS(=O)(=O)NC(=O)c1ccc(Oc2ccc3ccccc3n2)c(C#N)c1 [Example L34, 3-cyano-N-(methylsulfonyl)-4-(quinolin-2-yloxy)benzamide]"
13,50.2 µM,"CS(=O)(=O)NC(=O)c1ccc(Oc2cnc3ccccc3c2)c(C#N)c1 [Example L35, 3-cyano-N-(methylsulfonyl)-4-(quinolin-3-yloxy)benzamide]"
14,> 323 µM,"CS(=O)(=O)NC(=O)c1ccc(Oc2nccc3ccccc23)c(Cl)c1 [Example L36, 3-chloro-4-(isoquinolin-1-yloxy)-N-(methylsulfonyl)benzamide]"
15,> 323 µM,"CS(=O)(=O)NC(=O)c1ccc(Oc2cncc3ccccc23)c(C#N)c1 [Example L37, 3-cyano-4-(isoquinolin-4-yloxy)-N-(methylsulfonyl)benzamide]"
16,> 323 µM,"CS(=O)(=O)NC(=O)c1cc(Cl)c(Oc2nccc3ccccc23)cc1F [Example L38, 5-chloro-2-fluoro-4-(isoquinolin-1-yloxy)-N-(methylsulfonyl)benzamide]"

# Biological target: T1, Nav1.7 (or SCN9A) channel
# Experiment: Nav1.7 (hSCN9A) block in HEK cells, PatchXpress 7000 automated electrophysiology, estimated IC50 (EIC50)
# Format: cell-based
# Settings: PatchXpress assay; HEK cells stably transfected with hSCN9A, voltage-clamped at V1/2 of inactivation
# In short: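 Stable hSCN9A HEK cells voltage-clamped at empirically determined inactivation V1/2 (8 s prepulse), current activated by 20 msec step to 0 mV; % inhibition from current before vs after compound. EIC50 derived from single-point data as concentration × (100−%inhibition)/%inhibition, excluding <20% and >80% inhibition; PatchXpress unless stated.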
row,IC50,SMILES
1,2.6 µM,"CN(c1ncc(Oc2cc(F)c(C(=O)NS(C)(=O)=O)cc2F)cc1Cl)C1CCOC1 (stereo not shown) [Example 139, 4-({5-chloro-6-[methyl(tetrahydrofuran-3-yl)amino]pyridin-3-yl}oxy)-2,5-difluoro-N-(methylsulfonyl)benzamide]"
2,1.6 µM,"CS(=O)(=O)NC(=O)c1cc(F)c(Oc2cnc(NC3CC3)c(Cl)c2)cc1F [Example 140, 4-{[5-chloro-6-(cyclopropylamino)pyridin-3-yl]oxy}-2,5-difluoro-N-(methylsulfonyl)benzamide]"
3,0.27 µM,"CN(CC1CC1)c1ncc(Oc2cc(F)c(C(=O)NS(C)(=O)=O)cc2F)cc1Cl [Example 141, 4-({5-chloro-6-[(cyclopropylmethyl)(methyl)amino]pyridin-3-yl}oxy)-2,5-difluoro-N-(methylsulfonyl)benzamide]"
4,0.17 µM,"CS(=O)(=O)NC(=O)c1cc(F)c(Oc2cnc(N3CCCCC3)c(Cl)c2)cc1F [Example 142, 4-[(5-chloro-6-piperidin-1-ylpyridin-3-yl)oxy]-2,5-difluoro-N-(methylsulfonyl)benzamide]"
5,> 1 µM,"COCCNc1ncc(Oc2cc(F)c(C(=O)NS(C)(=O)=O)cc2F)cc1Cl [Example 143, 4-({5-chloro-6-[(2-methoxyethyl)amino]pyridin-3-yl}oxy)-2,5-difluoro-N-(methylsulfonyl)benzamide]"
6,0.49 µM,"CS(=O)(=O)NC(=O)c1cc(F)c(Oc2cnc(N[C@@H]3CCC[C@H]3F)c(Cl)c2)cc1F [Example 144, 4-[(5-chloro-6-{[(1R,2R)-2-fluorocyclopentyl]amino}pyridin-3-yl)oxy]-2,5-difluoro-N-(methylsulfonyl)benzamide]"
7,0.81 µM,"CS(=O)(=O)NC(=O)c1cc(F)c(Oc2cnc(NC3CCCOC3)c(Cl)c2)cc1F (stereo not shown) [Example 145, 4-{[5-chloro-6-(tetrahydro-2H-pyran-3-ylamino)pyridin-3-yl]oxy}-2,5-difluoro-N-(methylsulfonyl)benzamide]"
8,0.076 µM,"CS(=O)(=O)NC(=O)c1cc(F)c(Oc2cnc(N3CCCC3)c(Cl)c2)cc1F [Example 146, 4-[(5-chloro-6-pyrrolidin-1-ylpyridin-3-yl)oxy]-2,5-difluoro-N-(methylsulfonyl)benzamide]"
9,0.22 µM,"CCN(CC)c1ncc(Oc2cc(F)c(C(=O)NS(C)(=O)=O)cc2F)cc1Cl [Example 150, 4-{[5-chloro-6-(diethylamino)pyridin-3-yl]oxy}-2,5-difluoro-N-(methylsulfonyl)benzamide]"
10,> 3 µM,"CS(=O)(=O)NC(=O)c1cc(F)c(Oc2ncccc2C(F)(F)F)cc1F [Example 182, 2,5-difluoro-N-(methylsulfonyl)-4-{[3-(trifluoromethyl)pyridin-2-yl]oxy}benzamide]"
11,4.4 µM,"CS(=O)(=O)NC(=O)c1cc(F)c(Oc2ccc(Cl)cn2)cc1F [Example 184, 4-[(5-chloropyridin-2-yl)oxy]-2,5-difluoro-N-(methylsulfonyl)benzamide]"
12,> 3 µM,"Cc1nc2ccccc2nc1Oc1cc(F)c(C(=O)NS(C)(=O)=O)cc1F [Example 187, 2,5-difluoro-4-[(3-methylquinoxalin-2-yl)oxy]-N-(methylsulfonyl)benzamide]"
13,2.1 µM,"CC(C)c1nccnc1Oc1cc(F)c(C(=O)NS(C)(=O)=O)cc1F [Example 193, 2,5-difluoro-4-[(3-isopropylpyrazin-2-yl)oxy]-N-(methylsulfonyl)benzamide]"
14,3.1 µM,"CS(=O)(=O)NC(=O)c1cc(F)c(Oc2ccc(C(F)(F)F)cn2)cc1F [Example 194, 2,5-difluoro-N-(methylsulfonyl)-4-{[5-(trifluoromethyl)pyridin-2-yl]oxy}benzamide]"
15,> 3 µM,"Cc1cc2ccccc2nc1Oc1cc(F)c(C(=O)NS(C)(=O)=O)cc1F [Example 196, 2,5-difluoro-4-[(3-methylquinolin-2-yl)oxy]-N-(methylsulfonyl)benzamide]"
